Data published in US20210094954A1, “PREPARATION METHODS AND APPLICATIONS OF 3,5-DISUBSTITUTED METHYLPYRAZOLO[1,5-A]PYRIMIDINE-7-HYDROXYLIC SALTS” (priority 2019, published 2021).
Like-named read-outs stand apart in the source and are kept apart here.

Columns and labels:
[1] = tested on: Bacillus cereus 2; assay: microbe, parasite or virus in culture; format: cell-based; conditions: Bacillus cereus, 2; 37° C., 24 hours; read-out: MIC values of in vitro antibacterial test results
[2] = tested on: Bacillus subtilis 168; assay: microbe, parasite or virus in culture; format: cell-based; conditions: Bacillus subtilis, 168; 37° C., 24 hours; read-out: MIC values of in vitro antibacterial test results
[3] = tested on: Enterococcus faecalis 29212; assay: microbe, parasite or virus in culture; format: cell-based; conditions: Enterococcus faecalis, 29212; 37° C., 24 hours; read-out: MIC values of in vitro antibacterial test results
[4] = tested on: Enterococcus faecalis F2518(VRE); assay: microbe, parasite or virus in culture; format: cell-based; conditions: Enterococcus faecalis, VRE, 24 h, read-out: MIC values of in vitro antibacterial test results
[5] = tested on: Staphylococcus aureus 29231; assay: microbe, parasite or virus in culture; format: cell-based; conditions: Staphylococcus aureus, 29231; 37° C., 24 hours; read-out: MIC values of in vitro antibacterial test results
[6] = tested on: Staphylococcus aureus 43300(MRSA); assay: microbe, parasite or virus in culture; format: cell-based; conditions: Staphylococcus aureus, MRSA, 24 h, read-out: MIC values of in vitro antibacterial test results
[7] = tested on: Staphylococcus aureus 703(MRSA); assay: microbe, parasite or virus in culture; format: cell-based; conditions: Staphylococcus aureus, MRSA, 24 h, read-out: MIC values of in vitro antibacterial test results
[8] = tested on: Streptococcus pneumoniae 6303 (PRSP); assay: microbe, parasite or virus in culture; format: cell-based; conditions: Streptococcus pneumoniae, PRSP, 24 h, read-out: MIC values of in vitro antibacterial test results
[9] = tested on: Streptococcus pneumoniae M2; assay: microbe, parasite or virus in culture; format: cell-based; conditions: Streptococcus pneumoniae, M2; 37° C., 24 hours; read-out: MIC values of in vitro antibacterial test results
[10] = tested on: Streptococcus agalactia B group; assay: microbe, parasite or virus in culture; format: cell-based; conditions: Streptococcus; 37° C., 24 hours; read-out: MIC values of in vitro antibacterial test results
[11] = tested on: Streptococcus pneumoniae 10351; assay: microbe, parasite or virus in culture; format: cell-based; conditions: Streptococcus pneumoniae, 10351; 37° C., 24 hours; read-out: MIC values of in vitro antibacterial test results
[12] = tested on: Bacillus anthracis Bacillus 1; assay: microbe, parasite or virus in culture; format: cell-based; conditions: Bacillus anthracis, 24 h, read-out: MIC values of in vitro antibacterial test results
[13] = tested on: Diphtheria bacilli; assay: organism not typed; format: cell-based; conditions: 37° C., 24 hours; read-out: MIC values of in vitro antibacterial test results
[14] = tested on: Clostridium perfringens; assay: microbe, parasite or virus in culture; format: cell-based; conditions: Clostridium perfringens, 24 h, read-out: MIC values of in vitro antibacterial test results
[15] = tested on: Oral Candida; assay: microbe, parasite or virus in culture; format: cell-based; conditions: Candida
[16] = tested on: Peel fungus; assay: organism not typed; format: cell-based; conditions: 37° C., 24 hours; read-out: MIC values of in vitro antibacterial test results
[17] = tested on: F2518(VRE), Staphylococcus aureus resistant strain 43300(MRSA), 703 (MRSA), pneumococcal resistance bacteria 6303(PRSP); assay: microbe, parasite or virus in culture; format: cell-based; conditions: read-out: MIC values (μM)
[18] = tested on: Staphylococcus aureus 43300 (MRSA); assay: antibacterial study in vivo, survival of infected kunming mice; conditions: for Survival days: 30 days of observation
[19] = 37° C., 24 hours, read-out: MIC values of in vitro antibacterial test results

| SMILES | MIC [1] [µg/mL] | MIC [2] [µg/mL] | MIC [3] [µg/mL] | MIC [4] [µg/mL] | MIC [5] [µg/mL] | MIC [6] [µg/mL] | MIC [7] [µg/mL] | MIC [8] [µg/mL] | MIC [9] [µg/mL] | MIC [10] [µg/mL] | MIC [11] [µg/mL] | MIC [12] [µg/mL] | MIC [13] [µg/mL] | MIC [14] [µg/mL] | MIC ([15]; read-out: MIC values (μM)) [µg/mL] | MIC [15, 19] [µg/mL] | MIC [16] [µg/mL] | MIC [17] [µg/mL] | other results |
| --- | --- | --- | --- | --- | --- | --- | --- | --- | --- | --- | --- | --- | --- | --- | --- | --- | --- | --- | --- |
| Cc1nn2c([O-])cc(-c3ccc(Oc4ccccc4)nc3)nc2c1-c1ccc(F)cc1F.[Na+] [Compound 30, Sodium 3-(2,4-difluorophenyl)-2-methyl-5-(6-phenoxypyridin-3-yl)pyrazolo[1,5-α]pyrimidin-7-olate] | < 150 | > 150 | < 150 | < 150 | > 150 | < 100 | < 150 | > 150 | < 100 | > 150 | > 150 | > 150 | > 150 | > 150 | < 100 | < 100 | < 150 | < 100 | Survival days ([18]; dosage 30 mg/kg): 2.4 days |
| Cc1nn2c([O-])cc(-c3ccc(N(C)C)cc3)nc2c1-c1ccc(F)cc1F.[Na+] [Compound 5, Sodium 3-(2,4-difluorophenyl)-5-(4-(dimethylamino)phenyl)-2-methylpyrazolo[1,5-α]pyrimidin-7-olate] | < 150 | > 150 | < 150 | < 150 | > 150 | < 150 | < 150 | > 150 | < 100 | > 150 | > 150 | > 150 | > 150 | > 150 | < 100 | < 100 | < 150 |  | Survival days ([18]; dosage 30 mg/kg): 2.6 days |
| O=C(O)c1cn(C2CC2)c2cc(N3CCNCC3)c(F)cc2c1=O [Ciprofloxacin, reference compound] |  |  |  |  |  |  |  |  |  |  |  |  |  |  |  |  |  |  | Survival days ([18]; dosage 20 mg/kg): 3.4 days; Life extension rate (%) ([18]; dosage 20 mg/kg, versus blank group): 161.5% |
| Cc1nn2c([O-])cc(-c3ccc([N+](=O)[O-])nc3)nc2c1-c1ccc(F)cc1F.[Na+] [Compound 16, sodium 3-(2,4-difluorophenyl)-2-methyl-5-(6-nitropyridin-3-yl)pyrazolo[1,5-α]pyrimidin-7-olate] | < 100 | < 150 | < 100 | < 150 | < 100 | < 150 | < 100 | < 100 | < 150 | > 150 | < 100 | > 150 | > 150 | > 150 | < 100 | < 100 | > 150 | < 100 |  |
| Cc1nn2c([O-])cc(-c3ccc([N+](=O)[O-])cc3)nc2c1-c1ccc(F)cc1F.[K+] [Compound 23, Potassium 3-(2,4-difluorophenyl)-2-methyl-5-(4-nitrophenyl)pyrazolo[1,5-α]pyrimidin-7-olate] | < 100 | > 150 | < 150 | < 150 | > 150 | < 100 | < 150 | > 150 | < 100 | > 150 | > 150 | > 150 | > 150 | > 150 | < 100 | < 100 | < 150 | < 100 |  |
| Cc1nn2c([O-])cc(-c3ccc(S(N)(=O)=O)nc3)nc2c1-c1ccc(F)cc1F.[Na+] [Compound 29, Sodium 3-(2,4-difluorophenyl)-2-methyl-5-(6-sulfamoylpyridin-3-yl)pyrazolo[1,5-α]pyrimidin-7-olate] | < 150 | > 150 | < 150 | < 150 | > 150 | < 100 | < 150 | > 150 | < 100 | > 150 | > 150 | > 150 | > 150 | > 150 | < 100 | < 100 | < 150 | < 100 |  |
| Cc1nn2c([O-])cc(-c3ccc(F)cc3F)nc2c1-c1ccc(F)cc1F.[Na+] [Compound 12, Sodium 3,5-bis(2,4-difluorophenyl)-2-methylpyrazolo[1,5-α]pyrimidin-7-olate] | < 100 | > 150 | < 150 | < 150 | > 150 | < 150 | < 150 | > 150 | < 150 | > 150 | > 150 | > 150 | > 150 | > 150 |  | < 150 | < 150 | < 100 |  |
| Cc1nn2c([O-])cc(-c3ccc(C#N)nc3)nc2c1-c1ccc(F)cc1F.[K+] [Compound 27, Potassium 5-(6-cyanopyridin-3-yl)-3-(2,4-difluorophenyl)-2-methylpyrazolo[1,5-α]pyrimidin-7-olate] | < 100 | < 100 | < 100 | < 150 | < 100 | < 150 | < 100 | < 100 | < 100 | > 150 | < 100 | > 150 | < 150 | < 150 | < 100 | < 100 | > 150 | < 100 |  |
| COc1ccc(-c2cc([O-])n3nc(C)c(-c4ccc(F)cc4F)c3n2)cc1.[Na+] [Compound 4, Sodium 3-(2,4-difluorophenyl)-5-(4-methoxyphenyl)-2-methylpyrazolo[1,5-α]pyrimidin-7-olate] | < 150 | > 150 | < 150 | < 150 | > 150 | < 100 | < 150 | > 150 | < 150 | > 150 | > 150 | > 150 | > 150 | > 150 |  | < 150 | < 150 | < 100 |  |
| Cc1nn2c([O-])cc(-c3ccc(C(F)(F)F)nc3)nc2c1-c1ccc(F)cc1F.[Na+] [Compound 14, Sodium 3-(2,4-difluorophenyl)-2-methyl-5-(6-(trifluoromethyl)pyridin-3-yl)pyrazolo[1,5-α] pyrimidin-7-olate] | < 100 | < 100 | < 100 | < 150 | < 100 | < 150 | < 100 | < 100 | < 150 | > 150 | < 100 | > 150 | > 150 | > 150 | < 100 | < 100 | > 150 | < 100 |  |
| CC(=O)Oc1ccc(-c2cc([O-])n3nc(C)c(-c4ccc(F)cc4F)c3n2)cn1.[Na+] [Compound 33, Sodium 5-(6-acetoxypyridin-3-yl)-3-(2,4-difluorophenyl)-2-methylpyrazolo[1,5-α]pyrimidin-7-olate] | < 100 | > 150 | < 100 | < 150 | > 150 | < 100 | < 150 | > 150 | < 100 | > 150 | > 150 | > 150 | > 150 | > 150 | < 100 | < 150 | < 150 | < 100 |  |
| Cc1nn2c([O-])cc(-c3ccc(C(F)(F)F)cc3)nc2c1-c1ccc(F)cc1F.[Na+] [Compound 1, sodium 3-(2,4-difluorophenyl)-2-methyl-5-(4-(trifluoromethyl)-phenyl)pyrazolo[1,5-α]pyrimidin-7-olate] | < 100 | < 100 | < 100 | < 150 | < 100 | < 100 | < 150 | < 100 | < 100 | < 150 | < 100 | > 150 | > 150 | > 150 | < 100 | < 100 | > 150 | < 100 |  |
